From patent US20040067562A1, “Process for the production of L-lysine using coryneform bacteria” (priority 2002, published 2004)

Key:
[1] = biological target: T1, aspartate kinase in the wild type (Corynebacterium glutamicum, UniProt P26512); assay: inhibition of wild type aspartate kinase by lysine (or analogue)/threonine mixtures; assay type: biochemical; conditions: wild type enzyme; lysine or analogue 100 mM in mixture with threonine (10 mM)
T1 construct: endogenous in cells
Description: (§1) The Corynebacterium glutamicum strain DM1725 was produced by multiple untargeted and targeted mutagenesis including genetic engineering methods, selection and mutant selection from C. glutamicum ATCC13032. The strain is resistant to the lysine analogue S-(2-aminoethyl)-L-cysteine and has two identical complete copies of the LysC gene that code for a feedback-resistant aspartate kinase. The two copies are located at the LysC gene site on the chromosome. […] The strain is streptomycin resistant.

[2] = system: feedback-resistant aspartate kinase; assay: inhibition of feedback-resistant aspartate kinase by lysine (or analogue)/threonine mixtures; assay type: biochemical, Corynebacterium glutamicum; conditions: feedback-resistant enzyme of strain DM1725; lysine or analogue 100 mM in mixture with threonine (10 mM)
Description: as §1

T1 sequence (P26512 whole entry): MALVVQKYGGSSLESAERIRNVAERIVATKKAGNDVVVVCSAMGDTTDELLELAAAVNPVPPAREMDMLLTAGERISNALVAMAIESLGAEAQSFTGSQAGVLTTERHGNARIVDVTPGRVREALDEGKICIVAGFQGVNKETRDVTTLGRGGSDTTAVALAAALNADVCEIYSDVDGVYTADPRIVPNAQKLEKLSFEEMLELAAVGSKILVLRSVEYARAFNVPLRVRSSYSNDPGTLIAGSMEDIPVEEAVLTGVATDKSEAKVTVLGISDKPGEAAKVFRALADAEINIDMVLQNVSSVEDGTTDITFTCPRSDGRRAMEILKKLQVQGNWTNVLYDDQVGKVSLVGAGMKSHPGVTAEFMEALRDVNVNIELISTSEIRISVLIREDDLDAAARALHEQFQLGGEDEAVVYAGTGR
T1 sequence (P26512 250-421): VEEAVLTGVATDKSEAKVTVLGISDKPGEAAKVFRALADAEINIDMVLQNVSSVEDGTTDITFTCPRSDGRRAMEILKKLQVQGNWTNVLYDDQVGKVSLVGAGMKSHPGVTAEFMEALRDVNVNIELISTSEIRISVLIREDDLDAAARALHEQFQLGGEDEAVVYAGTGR

## NCCCC[C@H](N)C(=O)O [lysine]
[1]
  residual activity of aspartate kinase: 10%
[2]
  inhibition of aspartate kinase: insensitive to inhibition

## NCCSC[C@H](N)C(=O)O [S-(2-aminoethyl)-L-cysteine]
[1]
  residual activity of aspartate kinase: 10%
[2]
  inhibition of aspartate kinase: insensitive to inhibition
